This is an account of results in ChEMBL document CHEMBL3228028, “Enzyme affinity of the 5,6-dihydro derivatives of the substrate and product of thymidylate synthetase catalysis” (J Med Chem, 1979).

For assay [1], the target named is T1, Thymidylate synthase (Lactobacillus casei, UniProt P00469).
T1 sequence (P00469 whole entry): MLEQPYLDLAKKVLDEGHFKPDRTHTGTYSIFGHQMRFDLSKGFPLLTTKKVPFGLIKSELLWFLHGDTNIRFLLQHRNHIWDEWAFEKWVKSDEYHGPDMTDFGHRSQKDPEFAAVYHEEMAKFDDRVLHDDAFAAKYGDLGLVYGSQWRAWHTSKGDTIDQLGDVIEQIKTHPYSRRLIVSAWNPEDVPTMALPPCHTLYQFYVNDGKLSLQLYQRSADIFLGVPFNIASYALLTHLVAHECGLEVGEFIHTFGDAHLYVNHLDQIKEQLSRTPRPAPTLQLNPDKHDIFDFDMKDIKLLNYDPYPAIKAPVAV
As to the kind of experiment: Competitive inhibition of Lactobacillus casei thymidylate synthetase using 2'-deoxy[5-3H]uridine-5'-phosphate as substrate assessed as release of water after 15 mins by double reciprocal plot analysis. The arrangement: species or system Lacticaseibacillus casei.

The target of assay [2] is T1, Thymidylate synthase. Put plainly: Competitive inhibition of Lactobacillus casei thymidylate synthetase using dTMP as substrate assessed as release of water after 15 mins by double reciprocal plot analysis. The arrangement: species or system Lacticaseibacillus casei.

By Ki is commonly meant the equilibrium dissociation constant of an inhibitor or competing ligand from its target.

Turning to `O=C1CCN([C@H]2C[C@H](O)[C@@H](COP(=O)(O)O)O2)C(=O)N1`, the Ki at Thymidylate synthase [1] was 100 µM; at Thymidylate synthase [2], 2.8 µM.
On to `CC1CN([C@H]2C[C@H](O)[C@@H](COP(=O)(O)O)O2)C(=O)NC1=O` (stereo partly drawn), for which the Ki at Thymidylate synthase [1] came to 150 µM.
